The source of these data is paper PMC5769128, “Human UDP-Glucuronosyltransferase 2B4 and 2B7 Are Responsible for Naftopidil Glucuronidation in Vitro” (Frontiers in Pharmacology, 2018).

For data set [1] the following is noted: human, after oral treatment; no reference given; cited from earlier work.
The conditions of data set [2]: rat, ref Himmel, 1994, cited from earlier work.
The conditions of data set [3]: human, ref Himmel, 1994, cited from earlier work.
A further data set concerns animals. Also on record: method as in Himmel, 1994. The note with it: 100 mg/day, ref Himmel, 1994; cited from earlier work.
For data set [4], the system named is UGT2B4/UGT2B7 (NAF glucuronidation). The data set can be described thus: Inhibition of the glucuronidation of NAF enantiomers by specific UGT inhibitors in pooled HLM. To be noted: human, pooled human liver microsomes, pH 7.5, probe R(+)-NAF 50 μM, S(-)-NAF 20 μM.
Data set [5] relates to NAF glucuronidation in pooled HLM (UGT2B4/UGT2B7, UGT1A9). Described as above. The note with it: inhibitor 5, 50 μM; pooled HLM.
On the set-up of data set [6]: method as in Liu et al., 2017. To be noted: rat plasma; ref Liu et al., 2017; cited from earlier work.
The test system of data set [7] is human kidney microsomes (HKM). Nature of the data set: Kinetics of NAF enantiomer glucuronidation by human kidney microsomes. Type of data set: in vitro ADME. The protocol:
(§1) All glucuronidation assays were conducted in an incubation volume of 200 μL. Incubations were performed at 37°C in 50 mM Tris–HCl buffer (pH 7.5) with 10 mM magnesium chloride, 1 mg protein/mL of enzyme (microsomes and recombinant human UGTs), alamethicin (100 μg of alamethicin/mg microsomal protein), and NAF enantiomers (2.5–80 μM). The reaction was initiated by the addition of UDPGA (5 mM) and incubated at 37°C in a shaking water bath for 45 min. The reaction was terminated by the addition of 200 μL of ice-cold acetonitrile containing the IS (1 μM) and then centrifuged at 5000 ×g for 10 min at 4°C. The supernatant fraction was injected into the RRLC-MS/MS apparatus. Protein concentration (0.5–2 mg/mL) and incubation time (15–180 min) were optimized in preliminary studies to be within initial linear rate conditions.
(§2) Kinetic parameters were assessed in the HLM, RLM, HKM, RKM, and recombinant human UGTs (UGT2B4, 2B7, and 1A9).

The target of another data set is T1, UGT2B7 (Homo sapiens, UniProt P16662).
T1 sequence (P16662 24-529): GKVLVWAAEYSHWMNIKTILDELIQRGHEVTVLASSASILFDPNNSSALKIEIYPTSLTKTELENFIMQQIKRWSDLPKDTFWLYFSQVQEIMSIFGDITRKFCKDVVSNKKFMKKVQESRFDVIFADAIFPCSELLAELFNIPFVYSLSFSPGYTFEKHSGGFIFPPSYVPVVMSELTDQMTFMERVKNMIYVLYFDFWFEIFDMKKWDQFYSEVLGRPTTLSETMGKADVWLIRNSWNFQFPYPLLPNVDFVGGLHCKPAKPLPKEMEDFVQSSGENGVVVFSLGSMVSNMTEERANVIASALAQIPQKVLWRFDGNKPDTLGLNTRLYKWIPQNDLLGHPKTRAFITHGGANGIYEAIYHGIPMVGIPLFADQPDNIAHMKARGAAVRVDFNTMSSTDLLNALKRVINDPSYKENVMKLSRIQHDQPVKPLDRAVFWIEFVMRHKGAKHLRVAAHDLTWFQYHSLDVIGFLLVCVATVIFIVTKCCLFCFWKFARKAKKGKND
The data set can be described thus: Kinetics of NAF enantiomer glucuronidation by recombinant UGT2B7. Also on record: purchased BD Gentest. Type of data set: in vitro ADME. Here is the method:
as §1, §2

The next data set deals with T2, recombinant human UGT1A9 (Homo sapiens, UniProt O60656).
T2 construct: purchased BD Gentest
T2 sequence (O60656 26-530): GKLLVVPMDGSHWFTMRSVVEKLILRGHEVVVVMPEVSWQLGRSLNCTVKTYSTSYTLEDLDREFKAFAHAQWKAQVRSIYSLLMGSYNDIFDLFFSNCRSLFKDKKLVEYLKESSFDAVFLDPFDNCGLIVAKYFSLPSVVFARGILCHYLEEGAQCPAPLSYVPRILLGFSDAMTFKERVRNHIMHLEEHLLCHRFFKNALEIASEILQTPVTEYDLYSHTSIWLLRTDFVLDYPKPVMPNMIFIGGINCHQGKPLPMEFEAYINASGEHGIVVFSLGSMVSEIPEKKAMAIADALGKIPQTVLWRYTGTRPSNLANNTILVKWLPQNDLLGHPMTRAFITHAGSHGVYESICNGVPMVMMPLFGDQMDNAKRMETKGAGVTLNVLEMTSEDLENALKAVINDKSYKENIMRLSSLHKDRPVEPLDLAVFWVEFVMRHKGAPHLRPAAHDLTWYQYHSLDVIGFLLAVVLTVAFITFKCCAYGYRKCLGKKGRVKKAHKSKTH
The data set can be described thus: Kinetics of NAF enantiomer glucuronidation by recombinant UGT1A9. Type of data set: in vitro ADME. Here is the method:
as §1, §2

In data set [8] the test system is human liver microsomes (HLM). The data set can be described thus: Kinetics of NAF enantiomer glucuronidation by human liver microsomes. Type of data set: in vitro ADME. Here is the method:
as §1, §2

The next data set has as its target T3, recombinant human UGT2B4 (Homo sapiens, UniProt P06133).
T3 construct: purchased BD Gentest
T3 sequence (P06133 24-528): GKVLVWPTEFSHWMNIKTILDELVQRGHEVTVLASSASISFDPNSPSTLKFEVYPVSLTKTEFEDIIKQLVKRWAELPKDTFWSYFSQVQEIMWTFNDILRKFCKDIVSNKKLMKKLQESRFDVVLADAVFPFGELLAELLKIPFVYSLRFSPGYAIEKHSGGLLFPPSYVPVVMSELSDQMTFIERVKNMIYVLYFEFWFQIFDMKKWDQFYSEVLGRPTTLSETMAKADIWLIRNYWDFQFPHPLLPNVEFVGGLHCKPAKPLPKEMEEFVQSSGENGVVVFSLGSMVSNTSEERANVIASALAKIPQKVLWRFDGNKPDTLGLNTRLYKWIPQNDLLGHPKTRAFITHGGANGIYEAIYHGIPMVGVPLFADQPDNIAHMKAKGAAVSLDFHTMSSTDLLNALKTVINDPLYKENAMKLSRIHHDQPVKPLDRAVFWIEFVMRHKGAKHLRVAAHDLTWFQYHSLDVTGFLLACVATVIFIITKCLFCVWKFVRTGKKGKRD
The data set can be described thus: Kinetics of NAF enantiomer glucuronidation by recombinant UGT2B4. Type of data set: in vitro ADME. The protocol: as §1, §2

Substrate in data set [9]: COc1ccccc1N1CCN(C[C@H](O)COc2cccc3ccccc23)CC1
The data set can be described thus: cells, lysate or membranes named. The note with it: pH 7.5, 37.0 °C.

Substrate in data set [10]: COc1ccccc1N1CCN(C[C@@H](O)COc2cccc3ccccc23)CC1
Nature of the data set: cells, lysate or membranes named. The note with it: pH 7.5, 37.0 °C.

Setting [11] is: other: NAF glucuronidation by UGT2B4.
Where [12] appears, read: other: NAF glucuronidation by UGT2B7.

Like-named read-outs stand apart in the source and are kept apart here.

Regarding `COc1ccccc1N1CCN(CC(O)COc2cccc3ccccc23)CC1` (stereo not shown) [NAF, Naftopidil], the plasma levels in [1] was less than 10 µM. In addition, the bioavailability in data set [2] (Liu et al., 2015, 2017) is given as 6.8–14.5%; in data set [2] it was 9%; in data set [3] (Liu et al., 2015, 2017) it was less than 20%; in [3], 20%. For the same molecule, the “adverse findings at high doses” value in the data set with animals was “reduced food consumption and body weight gain, apathy, diarrhea, proteinuria, and slightly increased levels of alkaline phosphatase”.

In data set [4], `OC(Cn1cncn1)(Cn1cncn1)c1ccc(F)cc1F` [Fluconazole, fluconazole] displayed an inhibition at 45 min, 0.25 mM of roughly 35% and an inhibition at 45 min, 2.5 mM of roughly 55%.

Turning to `O=C(O)c1cccnc1Nc1cccc(C(F)(F)F)c1` [niflumic acid], the “Inhibition of NAF glucuronidation” value in [5] is “could not inhibit NAF glucuronidation”.

For `COc1ccccc1N1CCN(CC(COc2cccc3ccccc23)OC2OC(C(=O)O)C(O)C(O)C2O)CC1` (stereo not drawn) [R(+)-NAF-G], the “level of glucuronide relative to parent enantiomer” value in [6] is reported as “six”. The Kinetics type entry is on record as “Michaelis–Menten” in data set [7]; “Substrate inhibition” on UGT2B7; “Substrate inhibition” at recombinant human UGT1A9; “Michaelis–Menten” in data set [8]; “Substrate inhibition” at recombinant human UGT2B4. Further, the Vmax was 2786 ± 138 pmol/min/mg in data set [7]; 1043 ± 152 pmol/min/mg at UGT2B7; 34 ± 2 pmol/min/mg at recombinant human UGT1A9; 3330 ± 131 pmol/min/mg in data set [8]; 264 ± 38 pmol/min/mg at recombinant human UGT2B4.

In the case of `COc1ccccc1N1CCN(CC(COc2cccc3ccccc23)OC2OC(C(=O)O)C(O)C(O)C2O)CC1` (stereo not drawn) [S(-)-NAF-G], the “level of glucuronide relative to parent enantiomer” value in [6] was “threefold”. In addition, the Kinetics type entry in data set [7] is “Substrate inhibition”; on UGT2B7, “Substrate inhibition”; on recombinant human UGT1A9, “Michaelis–Menten”; in data set [8], “Michaelis–Menten”; at recombinant human UGT2B4, “Substrate inhibition”. Also, the maximal velocity (Vmax) turned out to be 1957 ± 100 pmol/min/mg in data set [7]; 1331 ± 298 pmol/min/mg on UGT2B7; 6.0 ± 2.2 pmol/min/mg on recombinant human UGT1A9; 3472 ± 129 pmol/min/mg in data set [8]; 1976 ± 158 pmol/min/mg at recombinant human UGT2B4.

B1: recombinant human UGT2B4 (Homo sapiens) (protein)
chain: GKVLVWPTEFSHWMNIKTILDELVQRGHEVTVLASSASISFDPNSPSTLKFEVYPVSLTKTEFEDIIKQLVKRWAELPKDTFWSYFSQVQEIMWTFNDILRKFCKDIVSNKKLMKKLQESRFDVVLADAVFPFGELLAELLKIPFVYSLRFSPGYAIEKHSGGLLFPPSYVPVVMSELSDQMTFIERVKNMIYVLYFEFWFQIFDMKKWDQFYSEVLGRPTTLSETMAKADIWLIRNYWDFQFPHPLLPNVEFVGGLHCKPAKPLPKEMEEFVQSSGENGVVVFSLGSMVSNTSEERANVIASALAKIPQKVLWRFDGNKPDTLGLNTRLYKWIPQNDLLGHPKTRAFITHGGANGIYEAIYHGIPMVGVPLFADQPDNIAHMKAKGAAVSLDFHTMSSTDLLNALKTVINDPLYKENAMKLSRIHHDQPVKPLDRAVFWIEFVMRHKGAKHLRVAAHDLTWFQYHSLDVTGFLLACVATVIFIITKCLFCVWKFVRTGKKGKRD
With B1, in data set [9] (setting [11]), the Km stood at 55 µM and the Vmax is on record as 1976 pmol/min/mg. Further, in [10] (setting [11]), the Km amounted to 51 µM and the Vmax/Km stood at 5.2 µL/min/mg.

B2: recombinant human UGT2B7 (Homo sapiens) (protein)
chain: GKVLVWAAEYSHWMNIKTILDELIQRGHEVTVLASSASILFDPNNSSALKIEIYPTSLTKTELENFIMQQIKRWSDLPKDTFWLYFSQVQEIMSIFGDITRKFCKDVVSNKKFMKKVQESRFDVIFADAIFPCSELLAELFNIPFVYSLSFSPGYTFEKHSGGFIFPPSYVPVVMSELTDQMTFMERVKNMIYVLYFDFWFEIFDMKKWDQFYSEVLGRPTTLSETMGKADVWLIRNSWNFQFPYPLLPNVDFVGGLHCKPAKPLPKEMEDFVQSSGENGVVVFSLGSMVSNMTEERANVIASALAQIPQKVLWRFDGNKPDTLGLNTRLYKWIPQNDLLGHPKTRAFITHGGANGIYEAIYHGIPMVGIPLFADQPDNIAHMKARGAAVRVDFNTMSSTDLLNALKRVINDPSYKENVMKLSRIQHDQPVKPLDRAVFWIEFVMRHKGAKHLRVAAHDLTWFQYHSLDVIGFLLVCVATVIFIVTKCCLFCFWKFARKAKKGKND
For B2, in data set [9] (setting [12]), the Michaelis-Menten constant (Km) was determined as 38 µM and the Vmax is listed as 1331 pmol/min/mg. Also, in data set [10] (setting [12]), the Km came to 21 µM, the Vmax is 1043 pmol/min/mg and the Vmax/Km stood at 50 µL/min/mg.

The bioavailability is dose-corrected exposure relative to a reference, in per cent. One may read the inhibition as the relative decrease from the control value, in per cent. What is called Vmax is the rate approached at saturating substrate. Usually Km stands for the substrate concentration at which the rate is half of its maximum.
